Results on five compounds are retold here after patent US20220370451A1, “INHIBITORS OF HUMAN IMMUNODEFICIENCY VIRUS REPLICATION” (VIIV HEALTHCARE UK ( No. 5) LIMITED, priority 2019, published 2022).

Holding throughout (format): cell-based
The subject of data set [1] is recombinant NL4-3 virus. In words: HIV cell culture assay (luciferase reporter antiviral activity). The method, then:
HIV cell culture assay—MT=2 cells, 293T cells and the proviral DNA clone of NL4-3 virus were obtained from the NIH AIDS Research and Reference Reagent Program. MT=2 cells were propagated in RPMI 1640 media supplemented with 10% heat inactivated fetal bovine serum (FBS), […] penicillin G and up to 100 units/mL streptomycin. The 293T cells were propagated in DMEM media supplemented with 10% heat inactivated FBS, […] penicillin G and […] streptomycin. A recombinant NL4-3 proviral clone, in which a section of the nef gene was replaced with the Renilla luciferase gene, was used to make the reference virus used in these studies. The recombinant virus was prepared through transfection of the recombinant NL4-3 proviral clone into 293T cells using Transit-293 Transfection Reagent from Mirus Bio LLC (Madison, Wis.). Supernatent was harvested after 2-3 days and the amount of virus present was titered in MT=2 cells using luciferase enzyme activity as a marker by measuring luciferase enzyme activity. Luciferase was quantitated using the EnduRen Live Cell Substrate from Promega (Madison, Wis.). Antiviral activities of compounds toward the recombinant virus were quantified by measuring luciferase activity in MT=2 cells infected for 4-5 days with the recombinant virus in the presence of serial dilutions of the compound.
The 50% effective concentration (EC50) was calculated by using the exponential form of the median effect equation where (Fa)=1/[1+(ED50/drug conc.)m] (Johnson V A, Byington RT. Infectivity Assay. In Techniques in HIV Research. ed. Aldovini A, Walker B D. 71-76. New York: Stockton Press.1990). The 50% inhibitory concentration (EC50) was calculated by using the exponential form of the median effect equation where percent inhibition=1/[1+(EC50/drug concentration)m], where m is a parameter that reflects the slope of the concentration-response curve.
For orientation: In a reporter assay the amount or activity of a reporter protein is the signal.

Data set [2] in a line: Compound cytotoxicity, XTT-based colorimetric assay. The note with it: human; uninfected MT2 cells, day 4, XTT. The method, then: (§1) Compound cytotoxicity and the corresponding CC50 values were determined using the same protocol as described in the antiviral assay except that uninfected cells were used. Cytotoxicity was assessed on day 4 in uninfected MT2 cells by using a XTT (2,3-bis[2-Methoxy-4-nitro-5-sulfophenyl]-2H-tetrazolium-5-carboxyanilide inner salt)-based colorimetric assay (Sigma-Aldrich, St Louis, Mo.).
Background: Tetrazolium dyes change colour on reduction, which living cells bring about.

For data set [3], the system named is uninfected MT2 cells. The description is as above. How it is done:
as §1

The mark [4] stands for this setting: Human immunodeficiency virus 1, NL43, MT2.

Like-named read-outs stand apart in the source and are kept apart here.

Consider `Cc1nccnc1-c1ccc2c(=O)n(-c3ccc(Cl)c4c(NS(=O)(=O)C5CC5)nn(CC(F)F)c34)c([C@H](Cc3cc(F)cc(F)c3)NC(=O)Cn3nc(C(F)F)cc3C3CC3)nc2c1` (atropisomer, axis not shown; (P)) [Example 35, (S)-N-(1-((3P)-3-(4-chloro-3-(cyclopropanesulfonamido)-1-(2,2-difluoroethyl)-1H-indazol-7-yl)-7-(3-methylpyrazin-2-yl)-4-oxo-3,4-dihydroquinazolin-2-yl)-2-(3,5-difluorophenyl)ethyl)-2-(5-cyclopropyl-3-(difluoromethyl)-1H-pyrazol-1-yl)acetamide], for which the concentration giving a half-maximal response (EC50) (commonly the concentration at which the effect is half-maximal) in data set [1] (setting [4]) worked out at 0.36 nM. The half-maximal cytotoxic concentration (CC50) (in general, the concentration giving 50% cytotoxicity) at 4 days in data set [2] is above 500 nM.

Regarding `Cc1cc(F)ccc1-c1ccc2c(=O)n(-c3ccc(C)c4c(NS(C)(=O)=O)nn(C)c34)c([C@H](Cc3cc(F)cc(F)c3)NC(=O)Cn3nc(C(F)F)c4c3C(F)(F)[C@@H]3C[C@H]43)nc2c1` (atropisomer, axis not shown; (aR)) [Example 31, 2-((3bS,4aR)-3-(difluoromethyl)-5,5-difluoro-3b,4,4a,5-tetrahydro-1H-cyclopropa[3,4]cyclopenta[1,2-c]pyrazol-1-yl)-N-((S)-2-(3,5-difluorophenyl)-1-(3-(1,4-dimethyl-3-(methylsulfonamido)-1H-indazol-7-yl)-(3P)-7-(4-fluoro-2-methylphenyl)-4-oxo-3,4-dihydroquinazolin-2-yl)ethyl)acetamide], the EC50 in data set [1] (setting [4]) was 2.3 nM. The compound also gave a CC50 at 4 days in data set [2] above 500 nM.

As for `Cc1nccnc1-c1ccc2c(=O)n(-c3ccc(C)c4c(NS(C)(=O)=O)nn(C)c34)c(C(Cc3cc(F)cc(F)c3)NC(=O)Cn3nc(C(F)F)c4c3C(F)(F)[C@@H]3C[C@H]43)nc2c1` (stereo partly drawn) [Example 6, 2-((3bS,4aR)-3-(difluoromethyl)-5,5-difluoro-3b,4,4a,5-tetrahydro-1H-cyclopropa[3,4]cyclopenta[1,2-c]pyrazol-1-yl)-N-((S)-2-(3,5-difluorophenyl)-1-(3-(1,4-dimethyl-3-(methylsulfonamido)-1H-indazol-7-yl)-(3P)-7-(3-methylpyrazin-2-yl)-4-oxo-3,4-dihydroquinazolin-2-yl)ethyl)acetamide], the EC50 in data set [1] (setting [4]) turned out to be 0.056 nM. In data set [2], the CC50 at 4 days was above 500 nM.

With `Cc1nccnc1-c1ccc2c(=O)n(-c3ccc(Cl)c4c(NS(C)(=O)=O)nn(C)c34)c([C@H](Cc3cc(F)cc(F)c3)NC(=O)Cc3cn(C(C)C)c4ccccc34)nc2c1` [Example 8, (S)-N-(1-((3P)-3-(4-chloro-1-methyl-3-(methylsulfonamido)-1H-indazol-7-yl)-7-(3-methylpyrazin-2-yl)-4-oxo-3,4-dihydroquinazolin-2-yl)-2-(3,5-difluorophenyl)ethyl)-2-(1-isopropyl-1H-indol-3-yl)acetamide], in data set [1] (MT-2 cells infected for 4-5 days with recombinant NL4-3 Renilla luciferase virus, read-out: EC50), the 50% effective concentration (EC50) is 0.45 nM. For the same compound, the CC50 in data set [3] is above 500 nM.

Take `Cn1nc(NS(C)(=O)=O)c2c(Cl)ccc(-n3c([C@H](Cc4cc(F)cc(F)c4)NC(=O)Cn4ccc5ccccc54)nc4cc(-c5ccccc5F)ccc4c3=O)c21` [Example 30, (S)-N-(1-((3P)-3-(4-chloro-1-methyl-3-(methylsulfonamido)-1H-indazol-7-yl)-7-(2-fluorophenyl)-4-oxo-3,4-dihydroquinazolin-2-yl)-2-(3,5-difluorophenyl)ethyl)-2-(1H-indol-1-yl)acetamide]: in data set [1] (setting [4]), the EC50 was 3 nM. The compound further registered a cytotoxic concentration (CC50) at 4 days in data set [2] above 500 nM.
